Columns and labels:
[1] = molecular target: T1, Gap1 (general amino acid permease) (Saccharomyces cerevisiae, UniProt P19145); assay: inhibition of L-citrulline uptake in intact yeast; format: cell-based
T1 sequence (P19145 1-602): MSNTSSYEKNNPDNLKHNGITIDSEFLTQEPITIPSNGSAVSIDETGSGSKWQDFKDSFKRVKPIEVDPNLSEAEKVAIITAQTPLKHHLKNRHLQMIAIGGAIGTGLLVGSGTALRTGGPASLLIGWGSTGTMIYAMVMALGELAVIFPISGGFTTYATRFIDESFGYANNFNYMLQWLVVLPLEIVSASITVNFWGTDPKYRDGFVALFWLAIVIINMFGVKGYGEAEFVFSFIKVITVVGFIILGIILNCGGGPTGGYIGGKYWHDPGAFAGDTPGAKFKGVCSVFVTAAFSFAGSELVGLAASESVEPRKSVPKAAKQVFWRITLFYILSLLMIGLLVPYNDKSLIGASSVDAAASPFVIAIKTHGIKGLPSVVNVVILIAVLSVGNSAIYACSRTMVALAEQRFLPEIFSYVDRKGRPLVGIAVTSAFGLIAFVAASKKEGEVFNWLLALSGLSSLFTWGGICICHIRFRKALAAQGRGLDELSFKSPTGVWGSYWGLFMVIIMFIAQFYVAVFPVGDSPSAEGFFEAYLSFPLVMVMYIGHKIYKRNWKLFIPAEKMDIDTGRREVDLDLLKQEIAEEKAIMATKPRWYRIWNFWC

[2] = molecular target: T1, Gap1 (general amino acid permease); assay: inhibition of […]-L-citrulline uptake in intact yeast; format: cell-based

Row | SMILES | inhibition of L-citrulline uptake in intact yeast (Fig. S6B, C) [1] | Ki [2] [µM]
1 | N[C@H](Cc1c[nH]cn1)C(=O)O [D-histidine] | Moreover they are acting largely as competitive inhibitors of L-citrulline transport (Fig. S6B and C) | 
2 | N[C@@H](Cc1c[nH]cn1)C(=O)O [L-histidine] |  | 2.5
3 | NCCCC[C@H](N)C(=O)O [L-lysine] |  | 9.5
4 | N[C@@H](Cc1c[nH]c2ccccc12)C(=O)O [L-tryptophan] |  | 3.3
5 | NCCC(=O)O [β-alanine] | Moreover they are acting largely as competitive inhibitors of L-citrulline transport (Fig. S6B and C) | 

Source: PMC4285233 (Molecular Microbiology, 2014)
